From patent US20080280933A1, “BENZIMIDAZOLYL COMPOUNDS” (priority 2006, published 2008)
pEC50: −log10 of the molar value. Read-outs that look alike come from different tables or passages of the source.

Biological target: T1, mGluR2 receptor (metabotropic glutamate receptor 2) (Homo sapiens, UniProt Q14416)
T1 construct: expressed in transfected cells
Experiment: mGluR2 Potentiator Screen, FLIPR, EC10-EC20 glutamate challenge
Type: cell-based
Conditions: read-out: EC50
How it was run: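 HEK cells stably co-expressing mGluR2 and Gα15, kept glutamine-free overnight, were loaded with Fluo-4 plus probenecid and GPT/pyruvate. Compounds (top 10 μM) were added ≥30 min before an EC10–EC20 glutamate challenge. Peak FLIPR fluorescence ratios were curve-fitted, excluding points above maximal effect, with maxima from on-plate standards.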

T1 sequence (Q14416 19-872, species assumed): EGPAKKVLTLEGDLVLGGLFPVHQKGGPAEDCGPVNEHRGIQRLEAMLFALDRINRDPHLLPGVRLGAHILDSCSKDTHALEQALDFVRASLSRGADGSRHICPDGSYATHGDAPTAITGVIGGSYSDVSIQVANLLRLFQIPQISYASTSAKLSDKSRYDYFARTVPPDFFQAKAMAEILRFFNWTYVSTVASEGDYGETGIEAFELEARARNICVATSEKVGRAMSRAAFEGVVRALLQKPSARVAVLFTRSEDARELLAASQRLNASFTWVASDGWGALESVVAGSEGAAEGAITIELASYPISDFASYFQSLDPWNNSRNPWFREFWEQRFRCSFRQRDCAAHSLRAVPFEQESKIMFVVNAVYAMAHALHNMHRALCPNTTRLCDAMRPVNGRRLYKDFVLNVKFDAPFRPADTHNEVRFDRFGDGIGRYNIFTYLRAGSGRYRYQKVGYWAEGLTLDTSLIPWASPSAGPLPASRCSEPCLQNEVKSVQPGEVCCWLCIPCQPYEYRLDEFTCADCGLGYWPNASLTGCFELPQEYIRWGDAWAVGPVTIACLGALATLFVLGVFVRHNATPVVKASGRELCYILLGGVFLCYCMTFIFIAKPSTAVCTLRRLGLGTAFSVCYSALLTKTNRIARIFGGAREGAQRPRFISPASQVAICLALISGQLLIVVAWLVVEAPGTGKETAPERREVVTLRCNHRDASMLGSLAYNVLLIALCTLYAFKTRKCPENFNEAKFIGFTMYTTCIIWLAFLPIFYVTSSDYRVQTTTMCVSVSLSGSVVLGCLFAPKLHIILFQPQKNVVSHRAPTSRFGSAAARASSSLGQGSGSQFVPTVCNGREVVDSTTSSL

Row | pEC50 | Molecule | pEC50 (listed as 11)
1 | 5.80 | CC(C)Oc1ccccc1C1CCN(Cc2nc3cc(Cl)ccc3n2C)CC1 [compound 379] | –
2 | 5.76 | Cn1c(CN2CCC(c3cc(Cl)ccc3F)CC2)nc2cc(Cl)ccc21 [compound 380] | –
3 | 5.80 | Cn1c(CN2CCC(c3cccc(C(F)(F)F)c3)CC2)nc2cc(Cl)ccc21 [compound 381] | –
4 | 5.15 | Cn1c(CN2CCC(c3cc(F)cc(F)c3)CC2)nc2cc(Cl)ccc21 [compound 382] | –
5 | 6.51 | COc1cc(C(F)(F)F)ccc1C1CCN(Cc2nc3cc(Cl)ccc3n2C)CC1 [compound 383] | –
6 | 6.31 | Cn1c(CN2CCC(c3ccc(C(F)(F)F)cc3F)CC2)nc2cc(Cl)ccc21 [compound 384] | –
7 | < 5.43 | COc1ccc(C(F)(F)F)cc1C1CCN(Cc2nc3cc(Cl)ccc3n2C)CC1 [compound 386] | –
8 | 6.70 | Cn1c(CN2CCC(c3cc(Cl)ccc3F)CC2)nc2cc(C#N)ccc21 [compound 387] | –
9 | 6.23 | COc1ccc(C(F)(F)F)cc1C1CCN(Cc2nc3cc(C#N)ccc3n2C)CC1 [compound 388] | –
10 | 6.55 | Cn1c(CN2CCC(c3cccc(C(F)(F)F)c3)CC2)nc2cc(C#N)ccc21 [compound 389] | –
11 | 7.28 | COc1cc(C(F)(F)F)ccc1C1CCN(Cc2nc3cc(C#N)ccc3n2C)CC1 [compound 390] | –
12 | 7.35 | Cn1c(CN2CCC(c3ccc(C(F)(F)F)cc3F)CC2)nc2cc(C#N)ccc21 [compound 391] | –
13 | 6.36 | Cn1c(CN2CCC(c3cc(C(F)(F)F)ccc3F)CC2)nc2cc(C#N)ccc21 [compound 392] | –
14 | 5.99 | CC(C)Oc1ccccc1C1CCN(Cc2nc3c(F)cccc3n2C)CC1 [compound 393] | –
15 | 6.63 | Cn1c(CN2CCC(c3ccccc3C(F)(F)F)CC2)nc2c(F)cccc21 [compound 394] | –
16 | 6.48 | Cn1c(CN2CCC(c3cc(F)cc(F)c3)CC2)nc2c(F)cccc21 [compound 395] | –
17 | 6.91 | Cn1c(CN2CCC(c3cccc(C(F)(F)F)c3)CC2)nc2c(F)cccc21 [compound 396] | –
18 | 6.36 | COc1ccc(C(F)(F)F)cc1C1CCN(Cc2nc3c(F)cccc3n2C)CC1 [compound 397] | –
19 | 7.40 | Cn1c(CN2CCC(c3ccc(C(F)(F)F)cc3F)CC2)nc2c(F)cccc21 [compound 398] | –
20 | > 7.91 | COc1cc(C(F)(F)F)ccc1C1CCN(Cc2nc3c(F)cccc3n2C)CC1 [compound 399] | –
21 | 7.36 | COc1cc(C(F)(F)F)ccc1C1CCN(Cc2nc3c(F)cccc3n2C)CC1 [compound 400] | –
22 | 6.79 | Cn1c(CN2CCC(c3cc(C(F)(F)F)ccc3F)CC2)nc2c(F)cccc21 [compound 401] | –
23 | 6.28 | CC(C)Oc1ccccc1C1CCN(Cc2nc3cc(C#N)ccc3n2C)CC1 [compound 402] | –
24 | 6.65 | Cn1c(CN2CCC(c3ccccc3C(F)(F)F)CC2)nc2cc(C#N)ccc21 [compound 403] | –
25 | 6.93 | COc1cc(C(F)(F)F)ccc1C1CCN(Cc2nc3cccc(F)c3n2C)CC1 [compound 406] | –
26 | 6.78 | COc1cc(F)ccc1C1CCN(Cc2nc3cccc(F)c3n2C)CC1 [compound 407] | –

Row | pEC50 | Molecule | pEC50 (listed as 11)
27 | 7.17 | COc1cc(F)ccc1C1CCN(Cc2nc3cc(F)ccc3n2C)CC1 [compound 408] | –
28 | 7.20 | COc1cc(F)ccc1C1CCN(Cc2nc3ccccc3n2C)CC1 [compound 409] | –
29 | 5.28 | Cn1c(CN2CC[C@@H](c3ccc(F)cc3)[C@H](COc3ccc4c(c3)OCO4)C2)nc2ccccc21 [compound 410] | –
30 | 6.20 | Cn1c(CN2CCC(c3ccc(C(F)(F)F)cc3)C(C)(C)C2)nc2ccccc21 (stereo not drawn) [compound 411] | –
31 | 6.98 | CC(C)Oc1ccc(C2CCN(Cc3nc4ccccc4n3C)CC2)cc1 [compound 412] | –
32 | 7.11 | Cn1c(CN2CCC(c3ccccc3OC(F)(F)F)CC2)nc2ccccc21 [compound 413] | –
33 | 6.90 | Cn1c(CN2CCC(c3cc(F)cc(F)c3)CC2)nc2ccccc21 [compound 414] | –
34 | 6.72 | Cn1c(CN2CCC(c3cc(F)cc(F)c3)CC2)nc2ccccc21 [compound 415] | –
35 | 6.77 | Cn1c(CN2CCC(c3ccccc3C#N)CC2)nc2ccccc21 [compound 416] | –
36 | 6.74 | Cn1c(CN2CCC(c3cccc(Cl)c3)CC2)nc2ccccc21 [compound 417] | –
37 | 5.79 | Cn1c(CN2CCC(c3cccc(C#N)c3)CC2)nc2ccccc21 [compound 418] | –
38 | 6.83 | Cn1c(CN2CCC(c3cccc(C(C)(C)C)c3)CC2)nc2ccccc21 [compound 419] | –
39 | 6.18 | Cn1c(CN2CCC(c3ccc(Cl)cc3)CC2)nc2ccccc21 [compound 420] | –
40 | 6.67 | COc1ccc(C2CCN(Cc3nc4ccccc4n3C)CC2)cc1 [compound 421] | –
41 | 7.84 | Cn1c(CN2CCC(c3ccc(F)cc3F)CC2)nc2ccccc21 [compound 422] | –
42 | 7.45 | Cn1c(CN2CCC(c3ccc(F)cc3F)CC2)nc2cc(F)ccc21 [compound 423] | –
43 | 7.32 | Cn1c(CN2CCC(c3ccc(F)cc3F)CC2)nc2cccc(F)c21 [compound 424] | –
44 | 7.05 | CCc1ccc(C2CCN(Cc3nc4ccccc4n3C)CC2)cc1 [compound 426] | –
45 | 6.85 | Cn1c(CN2CCC(c3ccc(F)cc3F)CC2)nc2cc(C#N)ccc21 [compound 427] | –
46 | 5.95 | Cn1c(CN2CCC(c3ccc(C(F)(F)F)cc3)C(O)C2)nc2ccccc21 (stereo not drawn) [compound 428] | –
47 | 7.19 | Cc1ccccc1C1CCN(Cc2nc3ccccc3n2C)CC1 [compound 429] | –
48 | 5.48 | Cn1c(CN2CCC(c3cccc(F)c3)CC2)nc2ccccc21 [compound 430] | –
49 | 5.27 | Cn1c(CN2CCC(c3cc(F)cc4c3OCCC4)CC2)nc2ccccc21 [compound 431] | –
50 | 6.59 | Cn1c(CN2CCC(F)(c3ccc(Cl)cc3)CC2)nc2ccccc21 [compound 432] | –
51 | 6.91 | Cn1c(CN2CCC(F)(c3ccc(C(F)(F)F)cc3)CC2)nc2ccccc21 [compound 433] | –
52 | 6.51 | Cn1c(CN2CCC(F)(c3ccc(F)cc3)CC2)nc2ccccc21 [compound 434] | –

Row | pEC50 | Molecule | pEC50 (listed as 11)
53 | 5.48 | Cc1cccc(NC(=O)c2cccc(C3CCN(Cc4nc5ccccc5n4C)CC3)c2)n1 [compound 435] | –
54 | 5.66 | CCCN(CC1CC1)C(=O)c1cccc(C2CCN(Cc3nc4ccccc4n3C)CC2)c1 [compound 436] | –
55 | 5.28 | Cn1c(CN2CCC(c3ccc(C(=O)NC4CCCC4)cc3)CC2)nc2ccccc21 [compound 437] | –
56 | 7.09 | COc1cccc(F)c1C1CCN(Cc2nc3ccccc3n2C)CC1 [compound 438] | –
57 | 6.34 | Cn1c(CN2CCC(F)(c3ccc(F)cc3)CC2)nc2cccc(F)c21 [compound 439] | –
58 | 5.55 | CC1=C(c2ccccc2)C(C)CN(Cc2nc3ccccc3n2C)C1 (stereo not drawn) [compound 440] | –
59 | 6.80 | Cn1c(CN2CCC(c3ccc(C(F)(F)F)cc3)C(F)C2)nc2ccccc21 (stereo not drawn) [compound 441] | –
60 | 7.09 | CCOc1ccc(C2CCN(Cc3nc4ccccc4n3C)CC2)cc1 [compound 442] | –
61 | 7.24 | Cn1c(CN2CCC(c3ccc(F)c(Cl)c3)CC2)nc2ccccc21 [compound 443] | –
62 | 6.88 | Cn1c(CN2CCC(c3ccc(F)c(Cl)c3)CC2)nc2cccc(F)c21 [compound 444] | –
63 | 6.86 | Cn1c(CN2CCC(c3ccc(C(F)(F)F)cc3)C(F)C2)nc2cccc(F)c21 (stereo not drawn) [compound 445] | –
64 | 7.37 | Cn1c(CN2CCC(c3ccc(Cl)c(C(F)(F)F)c3)CC2)nc2ccccc21 [compound 446] | –
65 | 7.34 | Cn1c(CN2CCC(c3ccc(F)c(Cl)c3)CC2)nc2cc(F)ccc21 [compound 447] | –
66 | 7.10 | Cn1c(CN2CCC(c3ccc(Cl)c(F)c3)CC2)nc2ccccc21 [compound 450] | –
67 | 8.12 | Cn1c(CN2CCC(c3ccc(Cl)cc3F)CC2)nc2ccccc21 [compound 451] | –
68 | 7.69 | Cn1c(CN2CCC(c3cccc(F)c3F)CC2)nc2ccccc21 [compound 452] | –
69 | 6.80 | Cn1c(CN2CCC(c3ccc(Cl)c(F)c3)CC2)nc2cccc(F)c21 [compound 453] | –
70 | 7.05 | Cn1c(CN2CCC(c3ccc(Cl)c(F)c3)CC2)nc2cc(F)ccc21 [compound 454] | –
71 | 5.59 | C[C@@H]1CN(Cc2ccc(C3CCN(Cc4nc5ccccc5n4C)CC3)cc2)C[C@H](C)O1 [compound 455] | –
72 | 7.38 | Cn1c(CN2CCC(c3ccc(Cl)cc3F)CC2)nc2cc(F)ccc21 [compound 458] | –
73 | 5.82 | Cn1c(CN2CC[C@@H]3c4ccccc4OC[C@H]3C2)nc2ccccc21 [compound 470] | –
74 | 5.68 | Cn1c(CN2CC[C@H]3c4ccccc4OC[C@H]3C2)nc2ccccc21 [compound 471] | –
75 | 7.12 | CC1CN(Cc2nc3ccccc3n2C)CCC1c1ccc(OC(F)(F)F)cc1F (stereo not drawn) [compound 474] | –
76 | 6.04 | (2-((4-(2-Fluorophenyl)piperidin-1-yl)methyl)-1-methyl-1H-benzo[d]imidazol-5-yl)methanol [Entry 297] | –

Row | Molecule | pEC50 | pEC50 (listed as 11)
77 | COc1cccc(C2CCN(Cc3nc4cc(F)ccc4n3C)CC2)c1 [compound 378] | 6.25 | –
78 | COc1cccc(C2CCN(Cc3nc4cc(Cl)ccc4n3C)CC2)c1 [compound 385] | 5.56 | –
79 | COc1cc(C2CCN(Cc3nc4ccccc4n3C)CC2)ccc1F [compound 425] | 6.36 | –
80 | Methyl 2-((4-(2-methoxyphenyl)piperidin-1-yl)methyl)-1-methyl-1H-benzo[d]imidazole-5-carboxylate [Entry 296] | 6.38 | 5.44
